For 18 molecules, IC50 and inhibition results are on record in patent US7879876B2, “Sulfonamide derivatives and use thereof for the modulation of metalloproteinases” (Merck Serono SA, priority 2005, dated 2011).

Molecules are shown by their SMILES.

Common to all, as to assay type: biochemical
Assay [1] concerns the target metalloelastase (MMP-12) (Homo sapiens, UniProt P39900). The assay is described as follows: MMP-12 enzyme inhibition assay (coumarin-labelled peptide substrate). The note with it: read-out: IC50 MMP12. In outline: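 Recombinant human MMP-12 assayed per the MMP-9 protocol: Tris-HCl pH 7.6 buffer with NaCl, CaCl2, Brij 35; McaPLGLDpaAR substrate, compounds 100 μM–5.1 nM in duplicate, 2 h at 37° C. Fluorescence read at 405 nm (320 nm excitation) without stopping; IC50 from four-parameter fit.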

For assay [2], the target named is T1, collagenase (MMP-1) (Homo sapiens, UniProt P03956).
T1 sequence (P03956 100-469): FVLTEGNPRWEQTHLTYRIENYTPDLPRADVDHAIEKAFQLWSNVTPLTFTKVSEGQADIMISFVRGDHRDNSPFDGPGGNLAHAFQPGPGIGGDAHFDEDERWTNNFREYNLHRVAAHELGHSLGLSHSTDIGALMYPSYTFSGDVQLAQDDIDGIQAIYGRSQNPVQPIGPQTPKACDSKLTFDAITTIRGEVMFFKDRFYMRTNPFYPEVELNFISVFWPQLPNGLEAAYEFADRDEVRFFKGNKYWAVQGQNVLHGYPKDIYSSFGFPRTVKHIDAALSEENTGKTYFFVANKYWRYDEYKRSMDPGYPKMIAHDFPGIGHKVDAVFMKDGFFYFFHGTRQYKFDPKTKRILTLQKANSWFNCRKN
The assay is described as follows: MMP-1 enzyme inhibition assay (coumarin-labelled peptide substrate). The note with it: @ 5 μM; read-out: percentage inhibition MMP1. In outline:
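Recombinant human MMP-1, APMA-activated if needed, in Tris-HCl pH 7.6 with NaCl, CaCl2 and 0.05% Brij 35; McaPLGLDpaAR substrate added as 8 μM solution, 2 h at 37 °C. Fluorescence (320/405 nm) read without stopping; IC50 from 10 duplicate concentrations (100 μM–5.1 nM) by four-parameter fit.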

For assay [3], the target named is MMP-14 (Homo sapiens, UniProt P50281). The experiment in a line: MMP-14 enzyme inhibition assay (coumarin-labelled peptide substrate). The note with it: read-out: percentage inhibition MMP14. In outline:
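Recombinant human enzyme, APMA-activated if necessary, was incubated with McaPLGLDpaAR substrate and compound (10 concentrations in duplicate, 100 μM to 5.1 nM) in Tris-HCl pH 7.6 with NaCl, CaCl2 and Brij 35 for 2 h at 37 °C. Fluorescence was read at 320/405 nm, and IC50 was taken from a four-parameter fit.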

The target of assay [4] is 92 kDa gelatinase (MMP-9) (Homo sapiens, UniProt P14780). The experiment in a line: MMP-9 enzyme inhibition assay (coumarin-labeled peptide substrate). Particulars: for inhibition at 5 µM: read-out: percentage inhibition MMP9; for IC50: read-out: IC50 MMP9. Put shortly: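 Recombinant human MMP-9 (APMA-activated if needed) was assayed in 100 mM Tris-HCl pH 7.6, 100 mM NaCl, 10 mM CaCl2, 0.05% Brij 35, with McaPLGLDpaAR substrate at 37° C. for 2 h. Fluorescence was read at ex 320/em 405 nm over ten 3-fold compound doses (100 μM–5.1 nM) in duplicate. IC50 came from a four-parameter fit.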
92 kDa gelatinase (MMP-9), sequence (P14780 107-707 limits assumed): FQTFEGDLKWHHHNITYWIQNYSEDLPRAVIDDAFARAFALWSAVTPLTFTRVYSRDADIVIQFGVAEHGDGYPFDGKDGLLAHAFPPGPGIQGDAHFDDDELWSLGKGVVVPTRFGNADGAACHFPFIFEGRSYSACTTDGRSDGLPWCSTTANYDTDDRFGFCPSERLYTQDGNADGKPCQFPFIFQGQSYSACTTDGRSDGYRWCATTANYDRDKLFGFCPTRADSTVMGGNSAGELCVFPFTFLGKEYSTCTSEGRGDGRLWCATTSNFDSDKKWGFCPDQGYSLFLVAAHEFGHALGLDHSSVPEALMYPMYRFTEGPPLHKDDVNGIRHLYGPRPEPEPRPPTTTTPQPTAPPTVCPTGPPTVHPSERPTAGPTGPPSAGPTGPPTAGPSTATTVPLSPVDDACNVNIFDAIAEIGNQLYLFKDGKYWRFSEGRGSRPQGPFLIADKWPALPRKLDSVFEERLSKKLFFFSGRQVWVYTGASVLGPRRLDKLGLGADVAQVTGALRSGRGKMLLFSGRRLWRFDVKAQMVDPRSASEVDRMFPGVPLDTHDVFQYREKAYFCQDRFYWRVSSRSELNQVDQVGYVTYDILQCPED

metalloelastase (MMP-12), sequence (P39900 106-470): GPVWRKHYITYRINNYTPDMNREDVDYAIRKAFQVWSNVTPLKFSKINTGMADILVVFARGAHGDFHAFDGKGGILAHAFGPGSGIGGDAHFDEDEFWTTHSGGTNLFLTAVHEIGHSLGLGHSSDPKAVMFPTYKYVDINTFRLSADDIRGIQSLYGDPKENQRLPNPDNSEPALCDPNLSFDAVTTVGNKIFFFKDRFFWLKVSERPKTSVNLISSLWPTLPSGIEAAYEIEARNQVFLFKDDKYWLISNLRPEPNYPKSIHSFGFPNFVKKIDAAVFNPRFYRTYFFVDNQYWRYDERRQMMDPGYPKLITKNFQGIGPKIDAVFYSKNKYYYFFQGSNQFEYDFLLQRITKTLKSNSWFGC

In the case of `CC(C)c1ccc2c(c1)CCN(S(=O)(=O)CC(C1CCCC1)N(O)C=O)C2` (centres unmarked) [Example 81, N-{1-cyclopentyl-2-[(6-isopropyl-3,4-dihydroisoquinolin-2(1H)-yl)sulfonyl]ethyl}-N-hydroxyformamide], in assay [1], the IC50 is 3.1 nM. Besides, the values for the inhibition at 5 µM in assay [2], in assay [3] and in assay [4] were 3%, 87% and 44%, respectively. In assay [3], the inhibition at 0.1 µM was determined as 0%.
In the case of `O=CN(O)C(CS(=O)(=O)N1CCc2ccc(Cl)cc2C1)C1CC1` (centres unmarked) [Example 73, N-{2-[(7-chloro-3,4-dihydroisoquinolin-2(1H)-yl)sulfonyl]-1-cyclopropylethyl}-N-hydroxyformamide], the IC50 in assay [1] is 45 nM. Also, the inhibition at 5 µM came out at 19% in assay [2], 40% in assay [3] and 5% in assay [4].
Consider `O=CN(O)C(COCc1ccccc1)CS(=O)(=O)N1CCc2ccc(C(F)(F)F)cc2C1` (centres unmarked) [Example 59, N-[2-(benzyloxy)-1-({[7-(trifluoromethyl)-3,4-dihydro-isoquinolin-2(1H)-yl]sulfonyl}methyl)ethyl]-N-hydroxyformamide], for which, in assay [1], the IC50 was 7.5 nM. The inhibition at 5 µM in assay [2] came out at 35%; in assay [3] it was 43%; in assay [4], 32%.
As for `O=CN(O)C(CS(=O)(=O)N1CCc2ccc(-c3ccsc3)cc2C1)C1CCCC1` (centres unmarked) [Example 68, N-(1-cyclopentyl-2-{[7-(3-thienyl)-3,4-dihydroisoquinolin-2(1H)-yl]sulfonyl}ethyl)-N-hydroxyformamide], the IC50 in assay [1] amounted to 9 nM. Moreover, the inhibition at 5 µM in assay [2] was found to be 0%; in assay [3], 99%; in assay [4], 31%. Besides, the inhibition at 0.1 µM in assay [3] was -30%.
`CC(C)(C)CC(CS(=O)(=O)N1CCc2cc(Cl)c(Cl)cc2C1)N(O)C=O` (centres unmarked) [Example 42, N-(1-{[(6,7-dichloro-3,4-dihydroisoquinolin-2(1H)-yl)-sulfonyl]methyl}-3,3-dimethylbutyl)-N-hydroxyformamide]: the IC50 in assay [1] was 4.4 nM. In addition, the figures for the inhibition at 5 µM in assay [2], in assay [3] and in assay [4] were 29%, 88% and 35%, respectively. For the same molecule, the inhibition at 0.1 µM in assay [3] was determined as 15%.
With `O=CN(O)C(CS(=O)(=O)N1CCc2ccc(F)cc2C1)C1CCCC1` (centres unmarked) [Example 60, N-{1-cyclopentyl-2-[(7-fluoro-3,4-dihydroisoquinolin-2(1H)-yl)sulfonyl]ethyl}-N-hydroxyformamide], in assay [1], the concentration for half-maximal inhibition (IC50) is 69 nM. Moreover, the inhibition at 5 µM in assay [2] was 6%; in assay [3], 16%; in assay [4], 0%.
Turning to `O=CN(O)[C@@H](CS(=O)(=O)N1CCc2ccc(Cl)cc2C1)[C@H]1CCCO1` [Example 22, N-{(1R)-2-[(7-chloro-3,4-dihydroisoquinolin-2(1H)-yl)sulfonyl]-1-[(2R)-tetrahydrofuran-2-yl]ethyl}-N-hydroxyformamide], the IC50 was 210 nM in assay [1] and above 5000 nM in assay [4]. Also, the inhibition at 5 µM in assay [2] and in assay [3] was 0% in each case.
For `O=CN(O)[C@@H](CS(=O)(=O)N1CCc2ccc(C(F)(F)F)cc2C1)[C@H]1CCCO1` [Example 32, N-hydroxy-N-((1R)-1-[(2R)-tetrahydrofuran-2-yl]-2-{[7-(trifluoromethyl)-3,4-dihydroisoquinolin-2(1H)-yl]sulfonyl}ethyl)formamide], the IC50 in assay [1] was determined as 168 nM. Besides, the inhibition at 5 µM in assay [2] turned out to be 4%; in assay [3], 14%; in assay [4] it was 4%.
`O=CN(O)C(CS(=O)(=O)N1Cc2ccc(F)cc2C1)C1CCCC1` (centres unmarked) [Example 80, N-{1-cyclopentyl-2-[(5-fluoro-1,3-dihydro-2H-isoindol-2-yl)sulfonyl]ethyl}-N-hydroxyformamide]: the IC50 in assay [1] worked out at 45 nM. Moreover, the figures for the inhibition at 5 µM in assay [2], in assay [3] and in assay [4] were 25%, 15% and 0%, respectively.
For `O=CN(O)C(CS(=O)(=O)N1CCc2ccc(Cl)cc2C1)C1CCCC1` (centres unmarked) [Example 21, N-{2-[(7-chloro-3,4-dihydroisoquinolin-2(1H)-yl)sulfonyl]-1-cyclopentylethyl}-N-hydroxyformamide], the IC50 was 19 nM in assay [1] and above 5000 nM in assay [4]. The inhibition at 5 µM in assay [2] worked out at 20%; in assay [3], 45%.
With `O=CN(O)C(CS(=O)(=O)N1Cc2ccccc2C1)C1CC1` (centres unmarked) [Example 72, N-[1-cyclopropyl-2-(1,3-dihydro-2H-isoindol-2-ylsulfonyl)-ethyl]-N-hydroxyformamide], the 50% inhibitory concentration (IC50) in assay [1] turned out to be 20 nM. Also, the inhibition at 5 µM is 75% in assay [2], 63% in assay [3] and 28% in assay [4].
Take `O=CN(O)C(CS(=O)(=O)N1CCc2ccc(-c3cccc(O)c3)cc2C1)C1CCCC1` (centres unmarked) [Example 70, N-(1-cyclopentyl-2-{[7-(3-hydroxyphenyl)-3,4-dihydroisoquinolin-2(1H)-yl]sulfonyl}ethyl)-N-hydroxyformamide]: in assay [1], the 50% inhibitory concentration (IC50) turned out to be 41 nM. The inhibition at 5 µM in assay [2] turned out to be 0%; in assay [3] it was 27%; in assay [4], 3%.
On to `CC(C)(C)C(CS(=O)(=O)N1CCc2ccc(Cl)cc2C1)N(O)C=O` (centres unmarked) [Example 65, N-(1-{[(7-chloro-3,4-dihydroisoquinolin-2(1H)-yl)sulfonyl]methyl}-2,2-dimethylpropyl)-N-hydroxyformamide], for which the IC50 in assay [1] came out at 27 nM. In addition, the results for the inhibition at 5 µM in assay [2], in assay [3] and in assay [4] were 30%, 50% and 13%, respectively.
Take `O=CN(O)C(CS(=O)(=O)N1CCc2ccc(C(F)(F)F)cc2C1)C1CCCC1` (centres unmarked) [Example 82, N-(1-cyclopentyl-2-{[7-(trifluoromethyl)-3,4-dihydro-isoquinolin-2(1H)-yl]sulfonyl}ethyl)-N-hydroxyformamide]: the IC50 in assay [1] was determined as 26 nM. The inhibition at 5 µM turned out to be 10% in assay [2], 20% in assay [3] and 0% in assay [4].
For the molecule `CC(C)(C)OC(=O)N1CCC[C@@H]1[C@@H](CS(=O)(=O)N1CCc2cc(Cl)c(Cl)cc2C1)N(O)C=O` (racemic) [Example 44, tert-butyl (2RS)-2-{(1SR)-2-[(6,7-dichloro-3,4-dihydro-isoquinolin-2(1H)-yl)sulfonyl]-1-[formyl(hydroxy)amino]ethyl}pyrrolidine-1-carboxylate], the IC50 in assay [1] stood at 7 nM. Also, the inhibition at 5 µM in assay [2] came out at 9%; in assay [3] it was 83%; in assay [4], 21%. Besides, the inhibition at 0.1 µM in assay [3] was determined as 5%.
For `COc1cc2c(cc1OC)CN(S(=O)(=O)CC(CCc1ccccc1)N(O)C=O)CC2` (centres unmarked) [Example 12, N-(1-{[(6,7-dimethoxy-3,4-dihydroisoquinolin-2(1H)-yl)sulfonyl]methyl}-3-phenylpropyl)-N-hydroxyformamide], the IC50 is 92 nM in assay [1] and above 5000 nM in assay [4]. Moreover, the inhibition at 5 µM in assay [2] and in assay [3] was 0% each time.
Turning to `CC(C)c1ccc2c(c1)CCN(S(=O)(=O)CC(C1CC1)N(O)C=O)C2` (centres unmarked) [Example 85, N-{1-cyclopropyl-2-[(6-isopropyl-3,4-dihydroisoquinolin-2(1H)-yl)sulfonyl]ethyl}-N-hydroxyformamide], the IC50 in assay [1] amounted to 4.9 nM. Moreover, the inhibition at 5 µM in assay [2] is 5%; in assay [3], 95%; in assay [4], 28%. Also, the inhibition at 0.1 µM in assay [3] was 14%.
For `O=CN(O)C(CS(=O)(=O)N1CCc2cc(Cl)c(Cl)cc2C1)C1CCCC1` (centres unmarked) [Example 77, N-{1-cyclopentyl-2-[(6,7-dichloro-3,4-dihydroisoquinolin-2(1H)-yl)sulfonyl]ethyl}-N-hydroxyformamide], in assay [1], the IC50 was 5.1 nM. The inhibition at 5 µM in assay [2] amounted to 17%; in assay [3], 78%; in assay [4] it was 35%.

One may read the IC50 as the concentration that inhibits the measured activity by half. In general, inhibition refers to the change of the read-out against control, counted positive when it falls.
